Laboratory results as given in patent US7816342B2, “Anti-obesity compositions” (Hoffmann-La Roche Inc., priority 2002, dated 2010).
“And” between values parts separate entries of the source, which are not always exact repeats. Identical values can stand only once.

System: Healthy volunteers
Assay: acute human side effect model (3-meal test), free oil
Format: in vivo
Conditions: orlistat alone (own control), individual volunteers
From the text: To test substances that will ameliorate the oil-related side effects associated with orlistat treatment, an acute human model was developed. Healthy volunteers received orlistat alone or in combination with the test substance during 3 consecutive meals (3-meal test). The modified orlistat formulations used in these 3-meal tests induce 70-80% fat excretion. A questionnaire was given to the volunteers to record side effects. The most severe oil related side effect is oily spotting (uncontrolled loss of oil). This side effect is difficult to quantify accurately in an acute model, however, in some volunteers a spontaneous separation of fat from formed stool was observed. This amount of fat, called free oil (mainly containing triglycerides) was isolated and weighted. The amount of free oil was used as a surrogate marker for the oily spotting as this is considered necessary for the appearance of oily spotting. Two clinical studies have been conducted to investigate the gastro-intestinal adverse event modifying effects of numerous substances. It appears that volunteers show an individual sensitivity to the orlistat-related gastro-intestinal side effects. […] For a given volunteer a substance is considered as positive when the free oil quantity is reduced by at least 50% compared to the control value (orlistat alone). […]

In the case of `CCCCCCCCCCC[C@@H](C[C@@H]1OC(=O)[C@H]1CCCCCC)OC(=O)[C@H](CC(C)C)NC=O` [orlistat], the Free oil production (Test 1) is reported as 11 g/week and 9 g/week and the Free oil production (Test 2) is reported as 17 g/week and 40 g/week and 39 g/week.
